Test results reported in patent publication US20210063420A1, “Human Neural Organoid Platform for Detecting Drugs of Abuse Disorder Susceptibility and Therapeutic Countermeasure and Non-Addictive Pain Medication Development” (Rene Anand, priority 2019, published 2021).

System: human iPSC-derived brain organoids
Protocol: All cpm data are normalized data and the reads are a direct representation of the abundance of the RNA for each gene.
Transcriptomic data from these neural organoids were obtained. […] Detailed data analysis using Gene Card and Pubmed data bases were performed.

CN1CCCC1c1cccnc1 (stereo not drawn) [nicotine]
expression of a set of genes for proteins involved in the development of midbrain dopaminergic neurons (VTA and SNpc) (chronic nicotine exposure of human iPSC-derived brain organoids): increases the expression | change in gene expression versus 0 (control) (exposure for 4 weeks to nicotine at 50 nanomolar, 500 nanomolar and 1 micromolar in the growth media, identified responsive genes): greater than 1.4 fold | expression of a subset of genes (Nurr 1, Lmx1a, Lmx1b, Neurog2, OTX2, Nolz1, NDNF) (human neural organoids, preliminary data): upregulated
